Data: the supplement of paper PMC10307832

Key:
Assay in all cases: relative viability (nuclei count vs DMSO), 5 days (fraction); higher = more cells survive
Avagacestat + Dasatinib = compound: NC(=O)[C@@H](CCC(F)(F)F)N(Cc1ccc(-c2ncon2)cc1F)S(=O)(=O)c1ccc(Cl)cc1 [Avagacestat] + Cc1nc(Nc2ncc(C(=O)Nc3c(C)cccc3Cl)s2)cc(N2CCN(CCO)CC2)n1 [Dasatinib] (partner 0.075 µM)
Method in brief: (§1)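 After 5 days of treatment, lung cancer cells in 1536-well plates were fixed and stained in a single step (final 0.05% Triton X-100, 1% formaldehyde, 1 ug/ml Hoechst) and their nuclei counted on 4× images. Treatment had been applied by pin tool the day after seeding as one drug alone or as a fixed anchor-drug dose with five library-drug doses (not always all listed) in √10 steps. Relative viability is the nuclei count of treated wells divided by that of vehicle wells, and values are medians of duplicate plates.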

Avagacestat + Crizotinib = compound: NC(=O)[C@@H](CCC(F)(F)F)N(Cc1ccc(-c2ncon2)cc1F)S(=O)(=O)c1ccc(Cl)cc1 [Avagacestat] + C[C@@H](Oc1cc(-c2cnn(C3CCNCC3)c2)cnc1N)c1c(Cl)ccc(F)c1Cl [Crizotinib] (partner 1 µM)
Method in brief: as §1

Avagacestat + Navitoclax = compound: NC(=O)[C@@H](CCC(F)(F)F)N(Cc1ccc(-c2ncon2)cc1F)S(=O)(=O)c1ccc(Cl)cc1 [Avagacestat] + CC1(C)CCC(c2ccc(Cl)cc2)=C(CN2CCN(c3ccc(C(=O)NS(=O)(=O)c4ccc(N[C@H](CCN5CCOCC5)CSc5ccccc5)c(S(=O)(=O)C(F)(F)F)c4)cc3)CC2)C1 [Navitoclax] (partner 0.5 µM)
Method in brief: as §1

Avagacestat + Vorinostat = compound: NC(=O)[C@@H](CCC(F)(F)F)N(Cc1ccc(-c2ncon2)cc1F)S(=O)(=O)c1ccc(Cl)cc1 [Avagacestat] + O=C(CCCCCCC(=O)Nc1ccccc1)NO [Vorinostat] (partner 1 µM)
Method in brief: as §1

Cell Line	relative viability (Avagacestat + Dasatinib; first compound 0.08 µM)	relative viability (Avagacestat + Dasatinib; first compound 0.253 µM)	relative viability (Avagacestat + Dasatinib; first compound 0.8 µM)	relative viability (Avagacestat + Dasatinib; first compound 2.53 µM)	relative viability (Avagacestat + Dasatinib; first compound 8 µM)	relative viability (Avagacestat + Crizotinib; first compound 0.08 µM)	relative viability (Avagacestat + Crizotinib; first compound 0.253 µM)	relative viability (Avagacestat + Crizotinib; first compound 0.8 µM)	relative viability (Avagacestat + Crizotinib; first compound 2.53 µM)	relative viability (Avagacestat + Crizotinib; first compound 8 µM)	relative viability (Avagacestat + Navitoclax; first compound 0.08 µM)	relative viability (Avagacestat + Navitoclax; first compound 0.253 µM)	relative viability (Avagacestat + Navitoclax; first compound 0.8 µM)	relative viability (Avagacestat + Navitoclax; first compound 2.53 µM)	relative viability (Avagacestat + Navitoclax; first compound 8 µM)	relative viability (Avagacestat + Vorinostat; first compound 0.08 µM)	relative viability (Avagacestat + Vorinostat; first compound 0.253 µM)	relative viability (Avagacestat + Vorinostat; first compound 0.8 µM)	relative viability (Avagacestat + Vorinostat; first compound 2.53 µM)	relative viability (Avagacestat + Vorinostat; first compound 8 µM)
PC-14	0.214	0.182	0.169	0.13	0.207	0.995	0.97	0.936	1.04	0.829	1.19	1.19	1.12	0.97	0.899	0.774	0.725	0.808	0.589	0.619
NCI-H727	0.35	0.355	0.5	0.369	0.41	0.986	0.956	1.08	0.946	0.775	0.408	0.461	0.596	0.339	0.459	1.27	1.19	1.21	1.18	1.19
NCI-H647	0.195	0.188	0.232	0.118	0.147	1.31	1.41	1.19	1.03	1.07	1.27	1.5	1.31	1.02	0.952	0.743	0.64	0.579	0.597	0.567
NCI-H838	0.293	0.285	0.328	0.309	0.253	0.932	1.09	0.906	0.858	0.764	1.55	1.52	1.31	1.06	1.13	0.737	0.769	0.788	0.672	0.705
NCI-H1355	0.688	0.754	0.687	0.557	0.62	1.19	1.14	0.997	0.872	0.866	1.14	0.999	0.923	0.768	0.833	0.702	0.637	0.628	0.527	0.542
LK-2	0.26	0.224	0.247	0.271	0.267	0.241	0.206	0.249	0.282	0.235	1.16	0.969	0.704	0.365	0.797	0.196	0.353	0.265	–	0.22
NCI-H2009	0.323	0.274	0.282	0.257	0.229	1.04	1.14	1.01	1.04	0.975	1.27	1.23	1.17	1.12	1.13	0.704	0.876	0.733	0.722	0.694
PC-3 [JPC-3]	1.17	1.14	1.16	0.888	0.843	1.15	1.25	1.16	1.05	0.993	0.908	0.885	0.864	0.821	0.761	0.944	0.87	1.33	0.857	0.949
